# PMC10247784, “Physiological activation of human and mouse bitter taste receptors by bile acids” (Communications Biology, 2023)
# Target: T1, mouse Tas2r144 (Mus musculus, UniProt Q7TQB8)
# T1 construct: expressed in transfected cells; host or cells: HEK293T-Gα16gust44
# Assay: Calcium imaging assay (FLIPR), HEK293T-Gα16gust44 cells transfected with mouse Tas2r144
# Assay type: cell-based
# T1 sequence (Q7TQB8 whole entry): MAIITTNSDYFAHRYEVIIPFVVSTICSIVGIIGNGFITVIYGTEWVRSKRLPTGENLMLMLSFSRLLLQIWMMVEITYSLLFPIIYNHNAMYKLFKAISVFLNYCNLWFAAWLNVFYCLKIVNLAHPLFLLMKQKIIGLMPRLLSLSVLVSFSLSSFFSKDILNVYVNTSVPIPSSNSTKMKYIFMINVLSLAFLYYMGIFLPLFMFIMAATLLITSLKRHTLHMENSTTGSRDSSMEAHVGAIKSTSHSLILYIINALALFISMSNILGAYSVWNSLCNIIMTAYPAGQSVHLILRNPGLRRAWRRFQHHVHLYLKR
smiles,measurement,setting,value
"C[C@H](CCC(=O)NCCS(=O)(=O)O)[C@H]1CC[C@H]2[C@@H]3CC[C@@H]4C[C@H](O)CC[C@]4(C)[C@H]3CC[C@]12C [Taurolithocholic Acid, taurolithocholic acid]",RLU,Time 0 s,0 RLU
same,RLU,Time 2 s,14.6538 RLU
same,RLU,Time 4 s,0.2718 RLU
same,RLU,Time 6 s,-11.922 RLU
same,RLU,Time 8 s,1.321 RLU
same,RLU,Time 12 s,10.4417 RLU
same,RLU,Time 14 s,-10.556 RLU
same,RLU,Time 16 s,-6.199 RLU
same,RLU,Time 18 s,24.6697 RLU
same,RLU,Time 18.781 s,60.5615 RLU
same,RLU,Time 20.781 s,-19.5171 RLU
same,RLU,Time 22.781 s,-4.009 RLU
same,RLU,Time 24.781 s,-20.7725 RLU
same,RLU,Time 26.781 s,1.348 RLU
same,RLU,Time 28.781 s,-0.7767 RLU
same,RLU,Time 30.781 s,41.688 RLU
same,RLU,Time 32.781 s,71.1245 RLU
same,RLU,Time 34.781 s,105.382 RLU
same,RLU,Time 36.781 s,151.604 RLU
same,RLU,Time 38.781 s,184.237 RLU
same,RLU,Time 40.781 s,248.501 RLU
same,RLU,Time 42.781 s,269.502 RLU
same,RLU,Time 44.781 s,268.298 RLU
same,RLU,Time 46.781 s,327.359 RLU
same,RLU,Time 48.781 s,341.375 RLU
same,RLU,Time 50.781 s,358.126 RLU
same,RLU,Time 52.781 s,372.318 RLU
same,RLU,Time 54.781 s,375.128 RLU
same,RLU,Time 56.781 s,360.867 RLU
same,RLU,Time 58.781 s,388.738 RLU
same,RLU,Time 60.781 s,413.492 RLU
same,RLU,Time 62.781 s,416.863 RLU
same,RLU,Time 64.781 s,424.583 RLU
same,RLU,Time 66.781 s,428.264 RLU
same,RLU,Time 68.781 s,426.421 RLU
same,RLU,Time 70.781 s,448.262 RLU
same,RLU,Time 72.781 s,417.687 RLU
same,RLU,Time 74.781 s,456.073 RLU
same,RLU,Time 76.781 s,430.589 RLU
same,RLU,Time 78.781 s,445.771 RLU
same,RLU,Time 80.781 s,460.032 RLU
same,RLU,Time 82.781 s,446.511 RLU
same,RLU,Time 84.781 s,409.522 RLU
same,RLU,Time 86.781 s,409.191 RLU
same,RLU,Time 88.781 s,405.957 RLU
same,RLU,Time 90.781 s,381.655 RLU
same,RLU,Time 92.781 s,387.142 RLU
same,RLU,Time 94.781 s,402.42 RLU
same,RLU,Time 96.781 s,404.326 RLU
same,RLU,Time 98.781 s,373.324 RLU
same,RLU,Time 100.781 s,389.827 RLU
same,RLU,Time 102.781 s,378.133 RLU
same,RLU,Time 104.781 s,393.124 RLU
same,RLU,Time 106.781 s,394.729 RLU
same,RLU,Time 108.781 s,385.581 RLU
same,RLU,Time 110.781 s,380.059 RLU
same,RLU,Time 112.781 s,389.586 RLU
same,RLU,Time 114.781 s,357.6 RLU
same,RLU,Time 116.781 s,386.704 RLU
same,RLU,Time 118.781 s,385.665 RLU
same,RLU,Time 120.781 s,364.459 RLU
same,RLU,Time 122.781 s,361.618 RLU
same,RLU,Time 124.781 s,373.746 RLU
same,RLU,Time 126.781 s,327.57 RLU
same,RLU,Time 128.781 s,359.155 RLU
same,RLU,Time 130.781 s,325.368 RLU
same,RLU,Time 132.781 s,293.828 RLU
same,RLU,Time 134.781 s,312.409 RLU
same,RLU,Time 136.781 s,298.284 RLU
same,RLU,Time 137.578 s,290.936 RLU
same,RLU,Time 143.578 s,296.494 RLU
same,RLU,Time 149.578 s,267.674 RLU
same,RLU,Time 155.578 s,285.393 RLU
same,RLU,Time 161.578 s,243.081 RLU
same,RLU,Time 167.578 s,210.334 RLU
same,RLU,Time 173.578 s,225.862 RLU
same,RLU,Time 179.578 s,201.092 RLU
same,RLU,Time 185.578 s,199.988 RLU
same,RLU,Time 191.578 s,157.165 RLU
same,RLU,Time 197.578 s,150.89 RLU
same,RLU,Time 203.578 s,157.65 RLU
same,RLU,Time 209.578 s,119.607 RLU
same,RLU,Time 215.578 s,114.651 RLU
same,RLU,Time 221.578 s,111.289 RLU
same,RLU,Time 227.578 s,125.554 RLU
same,RLU,Time 233.578 s,124.837 RLU
same,RLU,Time 239.578 s,148.185 RLU
same,RLU,Time 245.578 s,121.449 RLU
same,RLU,Time 293.578 s,139.355 RLU
same,RLU,Time 299.578 s,114.827 RLU
same,RLU,Time 305.578 s,107.043 RLU
same,RLU,Time 311.578 s,92.604 RLU
same,RLU,Time 317.578 s,88.3008 RLU
same,RLU,Time 323.578 s,90.2384 RLU
same,RLU,Time 329.578 s,71.9932 RLU
same,RLU,Time 335.578 s,67.9746 RLU
same,RLU,Time 341.578 s,66.5352 RLU
same,RLU,Time 347.578 s,80.5392 RLU
same,RLU,Time 353.578 s,85.9834 RLU
same,RLU,Time 359.578 s,89.3996 RLU
same,Activation threshold concentration Tas2r144,p < 0.01 vs empty vector,3 µM
